# Test system: breast cancer cell lines BT20, MDA-MB-231 and SUM-i 159
# Test: Drug response: breast cancer cell line proliferation inhibition
# Assay type: cell-based
# Settings: same dose as in the triple-drug combinations, BT20, MDA-MB-231, SUM-i 159, FIG. 9
# Protocol: The breast cancer cell lines BT20, MDA-MB-231 and SUM-i 159 were treated with HDAC inhibitor (MS275), ISP inhibitor (17-AAG), mTOR inhibitor (Niclosamide), polo-like kinase inhibitor (1312536) and histone demethylase inhibitor (GSK-J4).
row,Structure (SMILES),"inhibition of breast cancer cell line proliferation, single treatment"
1,CC[C@@H]1C(=O)N(C)c2cnc(Nc3ccc(C(=O)NC4CCN(C)CC4)cc3OC)nc2N1C1CCCC1 [compound 1312536],ineffective
2,CCOC(=O)CCNc1cc(N2CCc3ccccc3CC2)nc(-c2ccccn2)n1 [GSK-J4],ineffective
3,O=C(Nc1ccc([N+](=O)[O-])cc1Cl)c1cc(Cl)ccc1O [Niclosamide],ineffective
4,"Nc1ccccc1NC(=O)c1ccc(CNC(=O)OCc2cccnc2)cc1 [MS275, Entinostat]",ineffective
